Results reported in article PMC10856196 (Molecules, 2024).

Key:
[1] = target: T1, human MOP receptor (Opioid Receptor Mu 1) (Homo sapiens, UniProt P35372); assay: Tango β-arrestin recruitment in U2OS cells, antagonist mode against DAMGO EC80, two concentrations only; type: cell-based; settings: read-out: % Emax at 10 μM (relative to β-funaltrexamine)
T1 construct: gene OPRM1; human MOP receptor with linked TEV protease site (Tango OPRM1-bla U2OS)

[2] = target: T1, human MOP receptor (Opioid Receptor Mu 1); assay: Tango β-arrestin recruitment in U2OS cells, antagonist mode against DAMGO EC80; reference antagonist; type: cell-based

T1 sequence (P35372 whole entry): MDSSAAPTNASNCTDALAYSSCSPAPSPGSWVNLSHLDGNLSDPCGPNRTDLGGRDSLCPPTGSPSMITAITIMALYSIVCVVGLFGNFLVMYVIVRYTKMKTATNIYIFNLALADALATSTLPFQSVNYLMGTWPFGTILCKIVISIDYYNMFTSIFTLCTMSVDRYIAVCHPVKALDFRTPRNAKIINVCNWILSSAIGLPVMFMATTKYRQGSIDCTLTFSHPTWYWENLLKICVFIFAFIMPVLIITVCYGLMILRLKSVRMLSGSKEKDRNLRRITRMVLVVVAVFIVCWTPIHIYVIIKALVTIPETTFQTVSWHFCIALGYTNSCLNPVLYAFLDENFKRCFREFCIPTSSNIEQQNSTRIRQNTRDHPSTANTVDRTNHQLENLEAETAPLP

Q: How did the Emax at 10 µM [1] turn out when `Cc1ccc(N2CCN=C2NC(=O)NC(C)CCc2ccc(F)cc2)cc1` (centres unmarked) [7i, 1-[1-(4-methylphenyl)imidazolin-2-yl]-3-[4-(4-fluorophenyl)but-2-yl]urea] was run?
A: The Emax at 10 µM was 48%.

Q: For `COC(=O)/C=C/C(=O)N[C@@H]1CC[C@@]2(O)[C@H]3Cc4ccc(O)c5c4[C@@]2(CCN3CC2CC2)[C@H]1O5` [β-Funaltrexamine], which Emax at 10 µM [2] is on record?
A: The Emax at 10 µM was 100%.
